The source made the active and inactive calls. The rule behind the calls is not given here.
How the values were obtained:
[1] = target: Histamine H2 receptor (Homo sapiens) (UniProt P25021); assay: Displacement of [125I]APT from human recombinant histamine H2 receptor at 10 uM incubated for 120 mins by radiometric based scintillation counter assay relative to control
[2] = target: T1, Endothelin-1 receptor (Homo sapiens) (UniProt P25101); assay: Displacement of [125I]endhothelin-1 from human ETA receptor stably expressed in CHO cells Membrane assessed as maximum binding at 25 degC at 0.25 to 1.0 nM incubated for 4 hrs by saturation binding assay; assay type: cell membranes; settings: dose 0.25-1 nM
T1 sequence (whole entry): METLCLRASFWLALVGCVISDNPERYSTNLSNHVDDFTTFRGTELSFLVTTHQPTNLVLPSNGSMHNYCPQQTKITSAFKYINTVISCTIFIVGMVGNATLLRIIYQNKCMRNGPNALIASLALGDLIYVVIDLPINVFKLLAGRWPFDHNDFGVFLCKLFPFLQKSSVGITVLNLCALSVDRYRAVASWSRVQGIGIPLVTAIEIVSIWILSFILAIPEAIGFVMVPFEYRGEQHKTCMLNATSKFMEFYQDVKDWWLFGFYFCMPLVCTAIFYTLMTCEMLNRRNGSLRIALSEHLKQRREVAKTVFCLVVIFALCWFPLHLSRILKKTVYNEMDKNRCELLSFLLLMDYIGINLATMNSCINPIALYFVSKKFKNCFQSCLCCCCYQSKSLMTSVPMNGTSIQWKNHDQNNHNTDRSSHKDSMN

Homo sapiens [3] = species: Homo sapiens; assay: Displacement of [35S]TBPS to GABA channel Chloride ionophore binding site (unknown origin) at 10 uM by radioligand binding assay relative to control; settings: filed as antagonist
Endothelin-1 receptor = target: T2, Endothelin-1 receptor (Rattus norvegicus, UniProt P26684); assay: Antagonist activity at ETA receptor in endothelin-1 stimulated rat MMQ cells assessed as inhibition of phosphatidylinositol hydrolysis in presence of myo-[3H] inositol by anion exchange chromatography; assay type: functional, cell-based
T2 sequence (P26684 whole entry): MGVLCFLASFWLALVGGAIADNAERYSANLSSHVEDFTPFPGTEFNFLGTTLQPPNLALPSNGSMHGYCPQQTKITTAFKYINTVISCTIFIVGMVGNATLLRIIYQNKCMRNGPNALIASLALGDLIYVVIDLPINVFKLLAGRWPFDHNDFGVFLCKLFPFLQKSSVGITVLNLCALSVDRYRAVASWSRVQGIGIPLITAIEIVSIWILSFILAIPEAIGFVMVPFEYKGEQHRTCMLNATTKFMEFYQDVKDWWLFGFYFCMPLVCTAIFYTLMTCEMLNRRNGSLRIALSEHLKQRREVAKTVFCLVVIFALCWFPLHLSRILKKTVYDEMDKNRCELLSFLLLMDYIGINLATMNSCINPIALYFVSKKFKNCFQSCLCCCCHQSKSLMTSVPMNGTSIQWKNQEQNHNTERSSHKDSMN

[4] = target: Interleukin-1 beta (Homo sapiens) (UniProt P01584); assay: Inhibition of Interleukin-1beta (unknown origin) at 10 uM by radioligand binding assay relative to control
[5] = target: D(3) dopamine receptor (Homo sapiens) (UniProt P35462); assay: Displacement of [3H]methyl-spiperone from human recombinant dopamine D3 receptor at 10 uM incubated for 60 mins by radiometric based scintillation counter assay relative to control
Homo sapiens [6] = species: Homo sapiens; assay: Inhibition of Voltage-gated Na+ channel (site 1) (unknown origin) at 10 uM by radioligand binding assay relative to control
[7] = target: 5-hydroxytryptamine receptor 2C (Homo sapiens) (UniProt P28335); assay: Displacement of [3H]mesulergine from human recombinant 5-Hydroxytryptamine 2C at 10 uM incubated for 120 mins by radiometric based scintillation counter assay relative to control
[8] = Volume of distribution at steady state during terminal phase in Sprague-Dawley rat at 5 mg/kg, iv administered for 12 hrs by reverse phase HPLC-UV analysis; assay type: ADME, organism-based; settings: in vivo, read-out: Vbeta

Chain of Histamine H2 receptor (Homo sapiens) (P25021 whole entry): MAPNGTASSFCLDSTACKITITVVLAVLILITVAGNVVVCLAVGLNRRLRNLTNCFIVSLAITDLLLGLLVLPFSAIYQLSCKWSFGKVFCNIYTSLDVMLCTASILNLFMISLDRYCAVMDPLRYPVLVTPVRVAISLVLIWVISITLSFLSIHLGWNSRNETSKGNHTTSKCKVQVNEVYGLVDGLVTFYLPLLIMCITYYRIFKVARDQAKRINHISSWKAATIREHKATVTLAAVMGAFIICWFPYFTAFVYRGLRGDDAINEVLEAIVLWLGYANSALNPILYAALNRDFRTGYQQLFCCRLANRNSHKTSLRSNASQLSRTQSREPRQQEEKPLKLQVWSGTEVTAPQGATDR
Chain of 5-hydroxytryptamine receptor 2C (Homo sapiens) (P28335 whole entry): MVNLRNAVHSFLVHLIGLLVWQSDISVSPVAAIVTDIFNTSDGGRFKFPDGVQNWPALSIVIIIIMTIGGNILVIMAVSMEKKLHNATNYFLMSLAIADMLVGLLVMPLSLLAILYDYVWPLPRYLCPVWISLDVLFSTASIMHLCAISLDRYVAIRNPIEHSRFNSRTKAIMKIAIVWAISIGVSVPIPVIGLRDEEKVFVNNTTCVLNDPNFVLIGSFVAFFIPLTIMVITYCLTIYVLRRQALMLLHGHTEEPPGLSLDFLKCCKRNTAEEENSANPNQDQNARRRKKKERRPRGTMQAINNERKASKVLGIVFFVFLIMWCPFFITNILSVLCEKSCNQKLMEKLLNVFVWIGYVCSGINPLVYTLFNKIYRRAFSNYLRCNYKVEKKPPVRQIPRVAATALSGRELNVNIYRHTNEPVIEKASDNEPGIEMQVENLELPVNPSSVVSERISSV
Chain of Interleukin-1 beta (Homo sapiens) (P01584 117-269 limits assumed): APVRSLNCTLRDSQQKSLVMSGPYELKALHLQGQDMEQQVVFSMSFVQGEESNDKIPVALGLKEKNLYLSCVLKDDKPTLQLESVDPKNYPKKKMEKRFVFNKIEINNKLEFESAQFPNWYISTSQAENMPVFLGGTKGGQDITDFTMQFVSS
Chain of D(3) dopamine receptor (Homo sapiens) (P35462 whole entry): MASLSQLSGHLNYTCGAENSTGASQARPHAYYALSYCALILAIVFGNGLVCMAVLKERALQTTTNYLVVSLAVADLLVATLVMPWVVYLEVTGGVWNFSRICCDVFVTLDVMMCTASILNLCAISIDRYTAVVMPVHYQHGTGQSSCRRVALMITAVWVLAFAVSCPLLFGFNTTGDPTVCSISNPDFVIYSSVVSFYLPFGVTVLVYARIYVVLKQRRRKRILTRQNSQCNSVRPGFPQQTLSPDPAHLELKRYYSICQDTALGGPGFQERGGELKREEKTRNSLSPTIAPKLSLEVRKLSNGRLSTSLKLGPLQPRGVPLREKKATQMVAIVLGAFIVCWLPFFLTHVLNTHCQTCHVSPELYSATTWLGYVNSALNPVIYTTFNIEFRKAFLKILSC

SMILES: CCCCN(CCCC)C(=O)CN1[C@H](c2cc(OC)c3c(c2)OCO3)C[C@@H](C(=O)O)[C@@H]1CC(C)(C)CCC
- inhibition [1]: < 10%
- Bmax [2]: inactive
- inhibition (Homo sapiens [3]): 61%
- IC50 (Endothelin-1 receptor): 0.59 nM
- inhibition [4]: < 10%
- inhibition [5]: < 10%
- inhibition (Homo sapiens [6]): 22%
- inhibition [7]: < 10%
- Vd [8]: 3.7 L/kg
